How the values were obtained:
[1] = system: Sweetpotato Whitefly-Crawler (Bemisia tabaci) (WF) (BEMITA); test: Insecticidal test for Sweetpotato Whitefly-crawler (WF) in foliar spray assay on cotton plants; assay type: in vivo; details: 200 ppm foliar spray, graded after 9 days, Abbott corrected % control; for mortality at 200 ppm: Bemisia tabaci, 216 h, read-out: % Control (or Mortality) rating, WF
Protocol: Cotton plants (Gossypium hirsutum) grown in 3-inch pots, with 1 small (4-5 cm) true leaves, were used as test substrate. The plants were infested with 200-400 whitefly eggs 4-5 days prior to chemical application. Four pots with individual plants were used for each treatment. Test compounds (2 mg) were dissolved in 1 mL of acetone solvent, forming stock solutions of 2000 ppm test compound. The stock solutions were diluted 10× with 0.025% Tween 20 in H2O (diluents) to obtain the solution at 200 ppm test compound. A hand-held aspirator-type sprayer was used for spraying a solution to both sides of cotton leaves until runoff. Reference plants (solvent check) were sprayed with the diluent only containing 10% by volume of acetone solvent. Treated plants were held in a holding room for 9 days at approximately 25° C. and ambient relative humidity (RH) prior to grading. Evaluation was conducted by counting the number of live 3-4 nymph stage per plant under a microscope. Percent control was measured by using Abbott's correction formula (W. S. Abbott, “A Method of Computing the Effectiveness of an Insecticide” J. Econ. Entomol. 18 (1925), pp. 265-26′7) as follows. Corrected % Control=100*(X−Y)/X
X=No. of live nymphs on solvent check plants and
Y=No. of live nymphs on treated plants. […]

[2] = system: Green Peach Aphid (Myzus persicae) (GPA) (MYZUPE); test: Bioassay for Green Peach Aphid (GPA), foliar spray on cabbage seedlings; assay type: in vivo; details: 200 ppm foliar spray, graded after three days, Abbott corrected % control; for mortality at 200 ppm: Myzus persicae, 72 h, read-out: % Control (or Mortality) rating, GPA
Protocol: Cabbage seedlings grown in 3-inch pots, with 2-3 small (3-5 cm) true leaves, were used as test substrate. The seedlings were infested with 20-50 GPA (wingless adult and nymph stages) one day prior to chemical application. Four pots with individual seedlings were used for each treatment. Test compounds (2 mg) were dissolved in 2 mL of acetone/methanol (1:1) solvent, forming stock solutions of 1000 ppm test compound. The stock solutions were diluted 5× with 0.025% Tween 20 in H2O to obtain the solution at 200 ppm test compound. A hand-held aspirator-type sprayer was used for spraying a solution to both sides of […] leaves until runoff. Reference plants (solvent check) were sprayed with the diluent only containing 20% by volume of acetone/methanol (1:1) solvent. Treated plants were held in a holding room for three days at approximately 25° C. and ambient relative humidity (RH) prior to grading. Evaluation was conducted by counting the number of live aphids per plant under a microscope. Percent control was measured by using Abbott's correction formula (W. S. Abbott, “A Method of Computing the Effectiveness of an Insecticide” J. Econ. Entomol. 18 (1925), pp. 265-267) as follows. Corrected % Control=100*(X−Y)/X
X=No. of live aphids on solvent check plants and
Y=No. of live aphids on treated plants
Biological Data for Green Peach Aphid (GPA) (MYZUPE) and Sweetpotato Whitefly-crawler (WF) (BEMITA)” (See Table Section).

Row | Compound | % Control (or Mortality) rating, WF [1] | % Control (or Mortality) rating, GPA [2] | mortality at 200 ppm [2] [%] | mortality at 200 ppm [1] [%]
1 | 2-Methyl-N-(4-methyl-2-(pyridin-3-yl)thiazol-5-yl)-3-(methylsulfinyl)-N-(prop-2-yn-1-yl) propanamide [Compound P5] | A (80-100) | A (80-100) | – | –
2 | 4-Chloro-2-(5-fluoropyridin-3-yl)-N-(prop-2-yn-1-yl)thiazol-5-amine hydrochloride [CA1] | B (More than 0-Less than 80) | B (More than 0-Less than 80) | – | –
3 | 4-Chloro-N-(prop-2-yn-1-yl)-2-(pyrimidin-5-yl)thiazol-5-amine hydrochloride [CA2] | B (More than 0-Less than 80) | B (More than 0-Less than 80) | – | –
4 | C#CCN(C(=O)OC(C)(C)C)c1sc(Cl)nc1Cl [CA3, tert-butyl (2,4-dichlorothiazol-5-yl)(prop-2-yn-1-yl)carbamate] | – | – | < 0 | –
5 | C#CC(C)N(C(=O)OC(C)(C)C)c1sc(Br)nc1C (stereo not shown) [CA5, tert-butyl (2-bromo-4-methylthiazol-5-yl)(but-3-yn-2-yl)carbamate] | – | – | 0 to 80 | 0 to 80
6 | CC#CCN(C(=O)OC(C)(C)C)c1sc(Br)nc1C [CA6, tert-Butyl (2-bromo-4-methylthiazol-5-yl)(but-2-yn-1-yl)carbamate] | – | – | 0 to 80 | < 0
7 | C#CCN(C(=O)OC(C)(C)C)c1sc(-c2cccnc2)nc1C [CA7, tert-Butyl (4-methyl-2-(pyridin-3-yl)thiazol-5-yl)(prop-2-yn-1-yl) carbamate] | – | – | 80 to 100 | 80 to 100
8 | C#CCN(C(=O)OC(C)(C)C)c1sc(-c2cncc(F)c2)nc1C [CA8, tert-Butyl (2-(5-fluoropyridin-3-yl)-4-methylthiazol-5-yl)(prop-2-yn-1-yl) carbamate] | – | – | 0 to 80 | 80 to 100
9 | C#CCN(C(=O)OC(C)(C)C)c1sc(-c2cncc(F)c2)nc1Cl [CA9, tert-Butyl (4-chloro-2-(5-fluoropyridin-3-yl)thiazol-5-yl)(prop-2-yn-1-yl) carbamate] | – | – | 80 to 100 | 80 to 100
10 | C#CC(C)N(C(=O)OC(C)(C)C)c1sc(-c2cccnc2)nc1C (stereo not shown) [CA12, tert-Butyl but-3-yn-2-yl(4-methyl-2-(pyridin-3-yl)thiazol-5-yl)carbamate] | – | – | 80 to 100 | 80 to 100
11 | C#CCNc1sc(-c2cccnc2)nc1C [CA14, 4-Methyl-N-(prop-2-yn-1-yl)-2-(pyridin-3-yl)thiazol-5-amine] | – | – | 0 to 80 | 0 to 80
12 | C#CCN(C(=O)OC(C)(C)C)c1sc(-c2cccnc2)nc1Cl [Compound C3, tert-butyl (4-chloro-2-(pyridin-3-yl)thiazol-5-yl)(prop-2-yn-1-yl)carbamate] | – | – | 80 to 100 | 80 to 100
13 | C#CCN(C(=O)C1CC1)c1sc(-c2cccnc2)nc1Cl [Compound F2, N-(4-Chloro-2-(pyridin-3-yl)thiazol-5-yl)-N-(prop-2-yn-1-yl)cyclopropane carboxamide] | – | – | 80 to 100 | 80 to 100
14 | C#CCN(C(=O)CC(SC)C(F)(F)F)c1sc(-c2cccnc2)nc1Cl (stereo not shown) [Compound F3, N-(4-Chloro-2-(pyridin-3-yl)thiazol-5-yl)-4,4,4-trifluoro-3-(methylthio)-N-(prop-2-yn-1-yl) butanamide] | – | – | 80 to 100 | 80 to 100
15 | C#CCN(C(=O)CSC)c1sc(-c2cccnc2)nc1Cl [Compound F4, N-(4-Chloro-2-(pyridin-3-yl)thiazol-5-yl)-2-(methylthio)-N-(prop-2-yn-1-yl)acetamide] | – | – | 80 to 100 | 80 to 100
16 | C#CCN(C(=O)C1CC1(F)F)c1sc(-c2cccnc2)nc1Cl (stereo not shown) [Compound F5, N-(4-chloro-2-(pyridin-3-yl)thiazol-5-yl)-2,2-difluoro-N-(prop-2-yn-1-yl)cyclopropanecarboxamide] | – | – | 80 to 100 | 80 to 100
17 | C#CCN(C(=O)C(C)SC)c1sc(-c2cccnc2)nc1Cl (stereo not shown) [Compound F6, N-(4-chloro-2-(pyridin-3-yl)thiazol-5-yl)-2-(methylthio)-N-(prop-2-yn-1-yl)propanamide] | – | – | 80 to 100 | 80 to 100
18 | C#CCN(C(=O)CCSC)c1sc(-c2cccnc2)nc1Cl [Compound F7, N-(4-chloro-2-(pyridin-3-yl)thiazol-5-yl)-3-(methylthio)-N-(prop-2-yn-1-yl)propanamide] | – | – | 80 to 100 | 80 to 100
19 | C#CCN(C(=O)CCSCC1CC1(F)F)c1sc(-c2cccnc2)nc1Cl (stereo not shown) [Compound F8, N-(4-Chloro-2-(pyridin-3-yl)thiazol-5-yl)-3--(((2,2-difluorocyclopropyl)methyl)thio)-N-(prop-2-yn-1-yl)propanamide] | – | – | 80 to 100 | 80 to 100
20 | C#CCN(C(=O)C(C)CSC)c1sc(-c2cccnc2)nc1Cl (stereo not shown) [Compound F9, N-(4-chloro-2-(pyridin-3-yl)thiazol-5-yl)-2-methyl-3-(methylthio)-N-(prop-2-yn-1-yl)propanamide] | – | – | 80 to 100 | 80 to 100
21 | C#CCN(C(=O)CCSC)c1sc(-c2cccnc2)nc1C [Compound P1, N-(4-Methyl-2-(pyridin-3-yl)thiazol-5-yl)-3-(methylthio)-N-(prop-2-yn-1-yl)propanamide] | – | – | 80 to 100 | 80 to 100
22 | C#CCN(C(=O)C(C)CSC)c1sc(-c2cccnc2)nc1C (stereo not shown) [Compound P2, 2-Methyl-N-(4-methyl-2-(pyridin-3-yl)thiazol-5-yl)-3-(methylthio)-N-(prop-2-yn-1-yl) propanamide] | – | – | 80 to 100 | 80 to 100
23 | C#CCN(C(=O)CC[S+](C)[O-])c1sc(-c2cccnc2)nc1C (stereo not shown) [Compound P3, N-(4-Methyl-2-(pyridin-3-yl)thiazol-5-yl)-3-(methylsulfinyl)-N-(prop-2-yn-1-yl)propanamide] | – | – | 80 to 100 | 80 to 100
24 | C#CCN(C(=O)CCS(C)(=O)=O)c1sc(-c2cccnc2)nc1C [Compound P4, N-(4-Methyl-2-(pyridin-3-yl)thiazol-5-yl)-3-(methylsulfonyl)-N-(prop-2-yn-1-yl)propanamide] | – | – | 80 to 100 | 80 to 100
25 | C#CCN(C(=O)CCSCCC(F)(F)F)c1sc(-c2cccnc2)nc1C [Compound P6, N-(4-Methyl-2-(pyridin-3-yl)thiazol-5-yl)-N-(prop-2-yn-1-yl)-3-((3,3,3-trifluoropropyl)thio) propanamide] | – | – | – | 80 to 100
26 | C#CCN(C(=O)CC[S+]([O-])CCC(F)(F)F)c1sc(-c2cccnc2)nc1C (stereo not shown) [Compound P7, N-(4-Methyl-2-(pyridin-3-yl)thiazol-5-yl)-N-(prop-2-yn-1-yl)-3-((3,3,3-trifluoropropyl)sulfinyl) propanamide] | – | – | 80 to 100 | 80 to 100
27 | C#CCN(C(=O)CCS(=O)(=O)CCC(F)(F)F)c1sc(-c2cccnc2)nc1C [Compound P8, N-(4-Methyl-2-(pyridin-3-yl)thiazol-5-yl)-N-(prop-2-yn-1-yl)-3-((3,3,3-trifluoropropyl)sulfonyl) propanamide] | – | – | 80 to 100 | 80 to 100
28 | C#CCN(C(=O)CCSCC1CC1(F)F)c1sc(-c2cccnc2)nc1C (stereo not shown) [Compound P10, 3-(((2,2-Difluorocyclopropyl)methyl)thio)-N-(4-methyl-2-(pyridin-3-yl)thiazol-5-yl)-N-(prop-2-yn-1-yl)propanamide] | – | – | 80 to 100 | 80 to 100
29 | CC#CCN(C(=O)CCSCCC(F)(F)F)c1sc(-c2cccnc2)nc1C [Compound P16, N-(But-2-yn-1-yl)-N-(4-methyl-2-(pyridin-3-yl)thiazol-5-yl)-3-((3,3,3-trifluoropropyl)thio) propanamide] | – | – | 80 to 100 | 80 to 100
30 | CC#CCN(C(=O)CCSC)c1sc(-c2cccnc2)nc1C [Compound P17, N-(But-2-yn-1-yl)-N-(4-methyl-2-(pyridin-3-yl)thiazol-5-yl)-3-(methylthio)propanamide] | – | – | 80 to 100 | 80 to 100

Source: US9137998B2, “Pesticidal compositions and related methods” (DOW AGROSCIENCES LLC, priority 2013, dated 2015)
